This is an account of results in patent publication US5843339A, “Phosphites and their production and use” (Sumitomo Chemical Company, Limited, priority 1995, dated 1998).

Data set [1] can be described thus: Hydrolysis resistance: same gel build-up test with test compound stored in a thermo-hygrostat. Particulars: test compound allowed to stand in thermo-hygrostat (40° C., 80%) for 7 days, then same test as processing stability. The format is physicochemical. The protocol:
Using a test compound which was allowed to stand in a thermo-hygrostat (40° C., 80%) for 7 days, the same test was conducted and the hydrolytic stability of the compound was evaluated. The results are shown in Table 1 as "hydrolysis resistance".
The processing stability of the hydrolyzed compound is deteriorated. Therefore, the better the processing stability after treatment, the better the hydrolysis resistance becomes.

Data set [2] is described as follows: Heat stability test of linear low-density polyethylene: processing stability (gel build-up time on kneading). The note with it: 0.1 parts test compound per 100 parts LLDPE + 0.1 parts hydrotalcite; pellets extruded at 250° C., kneaded under nitrogen at 240° C., 100 rpm, laboplasto mill; time to maximum torque. As to the method:
Heat stability test of linear low-density polyethylene
Using a 30 mm .phi. mono axial extruder, the above formulation was extruded into pellets at 250° C. The resultant pellets were kneaded under a nitrogen atmosphere at 240° C., 100 rpm, using a laboplasto mill, and the time required for a torque value due to crosslinking to reach a maximum value (gel build-up time, minute) was measured. The results are shown in Table 1 as "processing stability".
The longer the gel build-up time, the more crosslinking on kneading is inhibited and the better the processing stability becomes.

Data set [3] can be described thus: Dispersion properties: visual transparency of press-molded sheet. It counts as physicochemical. Also noted: key: .circleincircle.: Good; .largecircle.: Slightly good; Δ: Slightly opaque; X: Opaque. Particulars: pellets press-molded at 250° C., sheet of 1 mm thickness. As to the method:
The resultant pellets were press-molded at 250° C. to obtain a sheet having a thickness of 1 mm, and transparency of this sheet was visually evaluated. The results are shown in Table 1 as "dispersion properties".
The better the transparency, the better the dispersion properties in the polymer become.
In Table 1, dispersion properties are indicated according to the following criteria.

As to `CC(C)(C)c1ccc(OP(Oc2ccc(C(C)(C)C)cc2C(C)(C)C)Oc2ccc(C(C)(C)C)cc2C(C)(C)C)c(C(C)(C)C)c1` [Compound P-2, tris(2,4-di-t-butylphenyl)phosphite], the “Hydrolysis resistance (gel build-up time after treatment of the test compound)” value (“Hydrolysis resistance” for short) in data set [1] turned out to be 4 min. The “Processing stability (gel build-up time)” value in data set [2] worked out at 7 min. For the same compound, in data set [3], the “Dispersion properties (transparency of sheet, visually evaluated)” value (“Dispersion properties” below) is “X”.
Turning to `Cc1cc(Cc2cc(C)cc(C(C)(C)C)c2OP2Oc3c(cc(C)cc3C(C)(C)C)Cc3cc(C)cc(C(C)(C)C)c3O2)c(O)c(C(C)(C)C)c1` [Compound P-4, 2-[2-(4,8-di-t-butyl-2,10-dimethyl-12H-dibenzo[d,g][1,3,2]dioxaphosphosin-6-yl)oxy-3-t-butyl-5-methylbenzyl]-6-t-butyl-4-methylphenol], the “Hydrolysis resistance” value in data set [1] was determined as 15 min. In addition, the “Processing stability (gel build-up time)” value in data set [2] worked out at 15 min. The “Dispersion properties” value in data set [3] is reported as “.largecircle”.
Take `CC(C)(C)c1ccc(OP2OCC3(CO2)COP(Oc2ccc(C(C)(C)C)cc2C(C)(C)C)OC3)c(C(C)(C)C)c1` (stereo not drawn) [Compound P-1, bis(2,4-di-t-butylphenyl)pentaerythritol diphosphite]: the “Hydrolysis resistance” value in data set [1] amounted to 7 min. For the same compound, in data set [2], the “Processing stability (gel build-up time)” value came to 7 min. The “Dispersion properties” value in data set [3] is given as “X”.
As for `Cc1cc(CCC(=O)OCCOp2oc3c(C(C)(C)C)cc(C(C)(C)C)cc3c3cc(C(C)(C)C)cc(C(C)(C)C)c3o2)cc(C(C)(C)C)c1O` [KA-1, 3-(3-t-butyl-4-hydroxy-5-methylphenyl)propionic acid 2-[(2,4,8,10-tetra-t-butyldibenzo[d,f][1,3,2]dioxaphosphepin-6-yl)oxy]ethyl], the “Hydrolysis resistance” value in data set [1] turned out to be 21 min. Moreover, in data set [2], the “Processing stability (gel build-up time)” value was 21 min. Further, the “Dispersion properties” value in data set [3] is “.circleincircle”.
On to `Cc1cc2c(c(C(C)(C)C)c1)OP(OCCOC(=O)CCc1cc(C)c(O)c(C(C)(C)C)c1)Oc1c(cc(C)cc1C(C)(C)C)C2` [Compound P-3, 2-[3-(3-t-butyl-4-hydroxy-5-methyphenyl)propionyloxy]ethyl 2,2'-methylenebis(6-t-butyl-4-methylphenyl)phosphite], for which the “Hydrolysis resistance” value in data set [1] worked out at 16 min. Also, in data set [2], the “Processing stability (gel build-up time)” value was 16 min. In addition, the “Dispersion properties” value in data set [3] is listed as “.largecircle”.
